Test results published in publication PMC13313556, “Development and characterization of triazole-based WDR5 inhibitors for the treatment of glioblastoma” (JCI Insight, 2026).
pKd: −log10 of the molar value. Where two headings read alike, the source gives them in different places.

Key:
[1] = Plasma protein binding (equilibrium dialysis), rat; assay type: in vitro ADME; conditions: read-out: PPB % fu (r)
Method: both the protein side and buffer side of the membrane after incubation and the parent
compound was quantified. […]

5 different CSC models = assay: 7-day CTG viability / cross-titration, panel of 5 CSC models; assay type: cell-based, human; conditions: Homo sapiens; 7-day assay, 5 CSC models
Method: For GI50 determination, compounds were stamped in technical triplicate, while for synergy cross-titrations dose-response matrices were prepared in technical duplicate. Different CSC lines, grown in suspension as spheroids, were split with Accutase and seeded directly on top of the prestamped compounds (50 μL of NBMc and 700 cells/well). The outer 4 rows (A,B and O,P row IDs) and 4 columns (1,2 and 23,24 column IDs) were filled with 80 μL of PBS to minimize evaporation. Cells were incubated with compounds for 7 days at 37°C/5% CO2 prior to the addition of 25 μL/well Cell-Titer Glo (Promega) and luminescence quantification on a Revvity EnVision plate reader. […] For the cross-titrations of 2 compounds, synergy scores were calculated using the MuSyC webserver ([79]).

In situ brain perfusion = assay type: in vivo, mice; conditions: 2-minute perfusion, 10 μM
Method: To evaluate the permeability across the blood-brain barrier of WDR5 inhibitors in the absence of hepatic clearance, we utilized the in situ brain perfusion technique. Mice were anesthetized via i.p. injection of 100 mg/kg ketamine and 80 mg/kg xylazine. The peritoneal cavity was exposed, the descending aorta was clamped, and the right atrium was cut to prevent venous return to the heart. A 28G butterfly winged infusion catheter (Terumo Medical Care Solutions) was inserted into the left ventricle and mice were perfused with a modified physiological buffer containing 10 μM WDR5 inhibitor ([99]). […] To determine brain uptake of WDR5 inhibitors, mice were perfused for 120 seconds. The experiment was concluded by decapitation of the mouse. Following termination, the brain was rapidly removed and placed on ice. Inhibitor concentration in both brain and blood was determined by liquid chromatography tandem mass spectroscopy (Q2 Solutions). The unidirectional uptake transfer constant (Kin) was calculated by the following relationship ([100]):
Where Qbr is the concentration of WDR5 inhibitor in brain (ng/g) corrected for residual inhibitor remaining in cerebrovasculature at the end of the perfusion time frame, Cpf is the perfusion fluid concentration of WDR5 inhibitor (ng/mL), T is the time length of the perfusion experiment, and V0 is the vascular volume of the WDR5 inhibitor (mL/g).

WDR5 = WDR5 (Homo sapiens, UniProt P61964); assay: WDR5 live cell CETSA in intact L0 CSCs (melting curve, isothermal Kd, washout); assay type: cell-based; parameters: we first used a cellular thermal shift (CETSA) assay in intact L0 CSCs; endogenous in cells; host or cells: L0 patient-derived GBM CSCs
Method: In total, 500,000 L0 CSCs, grown in suspension as spheroids, were split with Accutase and seeded in 1 mL of NBMc into each well of a 24-well dish. […] Cells were harvested by centrifugation (5 minutes, 500g) into SafeLock tubes (Eppendorf), washed once with 400 μL of PBS, and resuspended in 25 μL of CETSA Buffer (PBS + 1X Roche cOmplete Protease Inhibitor Cocktail + 3X Benzonase). […] One DMSO-treated sample was left unheated (representing 100% abundance i.e., fully bound) and 1 DMSO-treated sample was heated to 70°C (representing 0% abundance i.e., fully unbound). After heating, samples were lysed by 6X freeze-thaw cycles in LN2/hot water, rested for 10 minutes at room temperature, and then centrifuged for 30 minutes at > 14,000g at 4°C. 20 μL of the supernatant was transferred to a fresh tube into 5 μL of SDS-PAGE Loading Dye, boiled, and separated on 4%–20% Mini-PROTEAN Precast TGX Gels (Biorad). […] For CETSA washout experiments, a 10 cm dish with 6 × 10^6 to 8 × 10^6 L0 cells was treated for 2 hours with 5 μM compound or DMSO, washed 3 times with 15 mL of PBS (3 min, 400g), and split into 10 × 1 mL of fresh NBMc in a 24-well dish.

P-glycoprotein (MDR1) = biological target: T1, P-glycoprotein (MDR1) (Homo sapiens, UniProt P08183); assay: MDR1-MDCK permeability and efflux; assay type: in vitro ADME; conditions: for Papp A→B at 120 min, 5 μM / Papp B→A at 120 min, 5 μM / recovery at 120 min, 5 μM: dog, MDCK-MDR1, pH 7.4, 5 μM
T1 construct: host or cells: MDR1-MDCK cell monolayers
T1 sequence (P08183 whole entry): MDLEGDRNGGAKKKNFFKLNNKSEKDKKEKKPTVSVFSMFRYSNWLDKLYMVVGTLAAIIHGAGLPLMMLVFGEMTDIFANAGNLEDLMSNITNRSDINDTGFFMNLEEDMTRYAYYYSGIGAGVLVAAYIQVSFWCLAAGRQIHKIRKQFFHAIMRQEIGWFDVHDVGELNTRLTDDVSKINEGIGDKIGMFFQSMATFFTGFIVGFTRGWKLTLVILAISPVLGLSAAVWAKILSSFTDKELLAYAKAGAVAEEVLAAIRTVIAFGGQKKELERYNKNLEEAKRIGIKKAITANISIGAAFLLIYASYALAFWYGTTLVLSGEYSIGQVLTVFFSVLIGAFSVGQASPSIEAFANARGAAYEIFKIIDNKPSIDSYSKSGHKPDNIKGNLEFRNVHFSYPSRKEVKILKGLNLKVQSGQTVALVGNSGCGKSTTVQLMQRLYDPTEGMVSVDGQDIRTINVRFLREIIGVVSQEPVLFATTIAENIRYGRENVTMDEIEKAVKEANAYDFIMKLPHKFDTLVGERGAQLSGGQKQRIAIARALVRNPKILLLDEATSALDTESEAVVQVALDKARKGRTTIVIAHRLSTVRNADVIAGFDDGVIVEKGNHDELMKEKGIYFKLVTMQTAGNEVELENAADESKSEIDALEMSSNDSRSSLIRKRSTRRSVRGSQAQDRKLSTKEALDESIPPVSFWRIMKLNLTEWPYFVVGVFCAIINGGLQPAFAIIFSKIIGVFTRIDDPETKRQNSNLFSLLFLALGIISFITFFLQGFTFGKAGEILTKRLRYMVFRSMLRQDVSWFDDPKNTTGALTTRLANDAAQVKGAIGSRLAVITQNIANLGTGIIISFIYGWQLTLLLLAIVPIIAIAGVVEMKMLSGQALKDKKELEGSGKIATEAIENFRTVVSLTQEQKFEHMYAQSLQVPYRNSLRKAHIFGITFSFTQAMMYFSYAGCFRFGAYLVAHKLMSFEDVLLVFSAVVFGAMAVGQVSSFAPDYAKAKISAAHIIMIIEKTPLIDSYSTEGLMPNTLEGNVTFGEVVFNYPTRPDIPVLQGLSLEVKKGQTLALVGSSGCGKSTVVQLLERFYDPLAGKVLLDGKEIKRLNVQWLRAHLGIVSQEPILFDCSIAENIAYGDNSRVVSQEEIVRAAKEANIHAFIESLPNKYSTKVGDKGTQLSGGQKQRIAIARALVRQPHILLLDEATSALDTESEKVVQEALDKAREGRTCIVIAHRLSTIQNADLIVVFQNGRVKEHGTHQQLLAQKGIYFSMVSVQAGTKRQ
Method: Test Direction Recovery Papp (10-6 cm/s) Efflux Brain
Article (%) R1 R2 AVG Ratio Penetration
Supplemental Figure 4. Blood-brain barrier (BBB) penetration potential using MDR1-MDCK cell monolayers. All P-glycoprotein (MDR1) permeability and efflux studies were conducted at Absorption Systems (parent company Pharmaron). In brief, MDR1-MDCK monolayers were grown to confluence on collagen-coated, microporous membranes in 12-well assay plates. The permeability assay buffer was Hanks’ balanced salt solution containing 10 mM HEPES and 15 mM glucose at a pH of 7.4. The buffer in the receiver chamber also contained 1% bovine serum albumin. The dosing solution concentration was 5 μM of test article in the assay buffer. Cell monolayers were dosed on the apical side (A-to-B) or basolateral side (B-to-A) and incubated at 37°C with 5% CO2 in a humidified incubator. Samples were taken from the donor and receiver chambers after 120 minutes. Each determination was performed in duplicate. The flux of lucifer yellow was also measured post-experimentally for each monolayer to ensure no damage was inflicted to the cell monolayers during the flux period. All samples were assayed by LC-MS/MS using electrospray ionization. Efflux ratio (ER) is defined as Papp (B-to-A) / Papp […]

Brain homogenate binding = assay type: in vitro ADME; conditions: human brain homogenate; read-out: BHB %fu (h)
Method: both the protein side and buffer side of the membrane after incubation and the parent compound was quantified. Brain homogenate binding was performed similarly as above using human brain homogenate, equilibrium dialysis, and LC-MS/MS methods. Fraction unbound is calculated by dividing the concentration of the buffer side by the concentration of the matrix side (plasma or brain). […]

DI318 flank PDX tumors = assay: DI318 flank xenograft, tumor volume; assay type: in vivo, NSG mice; conditions: 30 mg/kg once a day i.p. over 7 days
Method: (A) NOD-scid (NSG) mice were inoculated subcutaneously in the right flank with 2 × 10⁶ DI318 CSCs suspended in 100 μL of PBS:Matrigel (1:1). Over the next 6-7 days tumors developed to the point where a small mass was visual. A digital caliper measurement (length and width) were taken to get a baseline tumor size. Mice
Compounds were formulated in 20% HP β-cyclodextrin (BCD) and administered once daily via IP injection at 30 mg/kg for 7 consecutive days.
Endpoint ellipsoid tumor volume was calculated and compared using a t-test.

WDR5-target genes = assay: RT-qPCR of WDR5-target genes in frozen DI318 flank tumor samples; assay type: in vivo, NSG mice; conditions: 30 mg/kg once a day i.p. over 7 days
L0 CSCs = assay: Extreme limiting dilution assay (ELDA) in L0; assay type: cell-based, human; conditions: 14 days
Method: L0 and DI318 CSCs were split with Accutase as single cells into NBMc. In total, 200 μL of CSCs were seeded into each well of a 96-well TC treated plate (n = 10 well per density) at 50, 25, 13, 6, 3, and 1.5 cells/well. […] The stem cell frequency was quantified and treatments were compared with DMSO as described by Hu and Smyth ([98]).

COc1cc(CN2CCc3c(cc(Cn4ccn(C)c4=N)cc3-c3ccc(F)cc3C)C2=O)cc(OC)c1 [C16, reference compound]
fraction unbound at […] [1]: 0.008 | GI50 (5 different CSC models): 1 to 5 µM | unidirectional brain uptake constant Kin (In situ brain perfusion): < 5 × 10^–4 mL/s/g | ΔTm at 10 µM (WDR5; L0 cells, 10 μM, 2 hours): 35 °C | Brain Penetration Classification (P-glycoprotein (MDR1)): Low | Papp A→B at 120 min, 5 μM (P-glycoprotein (MDR1); read-out: Papp A-to-B, AVG): 7.15 nm/s | Papp A→B at 120 min, 5 μM (P-glycoprotein (MDR1); read-out: Papp A-to-B, R1): 5.56 nm/s | Papp A→B at 120 min, 5 μM (P-glycoprotein (MDR1); read-out: Papp A-to-B, R2): 8.75 nm/s | Papp B→A at 120 min, 5 μM (P-glycoprotein (MDR1); read-out: Papp B-to-A, AVG): 17 nm/s | Papp B→A at 120 min, 5 μM (P-glycoprotein (MDR1); read-out: Papp B-to-A, R1): 14.9 nm/s | Papp B→A at 120 min, 5 μM (P-glycoprotein (MDR1); read-out: Papp B-to-A, R2): 19.1 nm/s | recovery at 120 min, 5 μM (P-glycoprotein (MDR1); read-out: Recovery, A-to-B): 85.6% | recovery at 120 min, 5 μM (P-glycoprotein (MDR1); read-out: Recovery, B-to-A): 87.3%

COc1cc(Cn2nnc3c2CCc2c-3cc(Cn3ccnc3C)cc2C2CC2)ccc1F [C3TD343]
fraction unbound at […] (Brain homogenate binding): 0.005 | fraction unbound at […] [1]: 0.027 | unidirectional brain uptake constant Kin (In situ brain perfusion): > 50 × 10^–4 mL/s/g | Brain Penetration Classification (P-glycoprotein (MDR1)): Low | efflux by P-glycoprotein (P-glycoprotein (MDR1); MDR1-MDCK permeability studies): strongly effluxed | Papp A→B at 120 min, 5 μM (P-glycoprotein (MDR1); read-out: Papp A-to-B, AVG): 1.13 nm/s | Papp A→B at 120 min, 5 μM (P-glycoprotein (MDR1); read-out: Papp A-to-B, R1): 1.31 nm/s | Papp A→B at 120 min, 5 μM (P-glycoprotein (MDR1); read-out: Papp A-to-B, R2): 0.949 nm/s | Papp B→A at 120 min, 5 μM (P-glycoprotein (MDR1); read-out: Papp B-to-A, AVG): 433 nm/s | Papp B→A at 120 min, 5 μM (P-glycoprotein (MDR1); read-out: Papp B-to-A, R1): 402 nm/s | Papp B→A at 120 min, 5 μM (P-glycoprotein (MDR1); read-out: Papp B-to-A, R2): 463 nm/s | recovery at 120 min, 5 μM (P-glycoprotein (MDR1); read-out: Recovery, A-to-B): 71.2% | recovery at 120 min, 5 μM (P-glycoprotein (MDR1); read-out: Recovery, B-to-A): 76.8%

COc1cc(Cn2nnc3c2CCc2c(-c4cn(C)nc4C(F)(F)F)cc(Cn4ccnc4C)cc2-3)cc(OC)c1 [C3TD078]
fraction unbound at […] (Brain homogenate binding): 0.004 | GI50 (5 different CSC models): 1 to 5 µM | effect on tumor growth (DI318 flank PDX tumors): did not reduce tumor growth | downregulation of WDR5-target genes in treated tumors (WDR5-target genes): did not downregulate WDR5-target genes in treated tumors | time remaining bound to WDR5 after washout (WDR5; L0 CSCs, 5 μM for 2 hours, then washout): at least 21 hours | pKd (WDR5; L0 CSCs, 2-hour pretreatment, isothermal 70°C): 8.70 | L0 ELDA stem cell frequency (1 in N) (L0 CSCs; 20 nM): 1.3 | L0 ELDA stem cell frequency (1 in N) (L0 CSCs; 200 nM): 2.2 | L0 ELDA stem cell frequency (1 in N) (L0 CSCs; 2000 nM): 2.1
